# Results as given in patent US10913781B2, “Pepducin design and use” (Tufts Medical Center, Inc., priority 2011, dated 2021).
# Peptide text beside a SMILES is read from it. * marks the point of attachment. Palmitoyl = CCCCCCCCCCCCCCCC(=O)*
# What was measured:
# PAR2 [1] = biological target: T1, PAR2 (Homo sapiens, UniProt P55085); experiment: Agonist | (%)^‡; design: SW620 colon adenocarcinoma cells that endogenously express PAR2; endogenous in cells; host or cells: SW620 (in A7 the SW620 cells were additionally stably transfected with PAR1)
# Target sequence in this assay (P55085 26-397 limits assumed): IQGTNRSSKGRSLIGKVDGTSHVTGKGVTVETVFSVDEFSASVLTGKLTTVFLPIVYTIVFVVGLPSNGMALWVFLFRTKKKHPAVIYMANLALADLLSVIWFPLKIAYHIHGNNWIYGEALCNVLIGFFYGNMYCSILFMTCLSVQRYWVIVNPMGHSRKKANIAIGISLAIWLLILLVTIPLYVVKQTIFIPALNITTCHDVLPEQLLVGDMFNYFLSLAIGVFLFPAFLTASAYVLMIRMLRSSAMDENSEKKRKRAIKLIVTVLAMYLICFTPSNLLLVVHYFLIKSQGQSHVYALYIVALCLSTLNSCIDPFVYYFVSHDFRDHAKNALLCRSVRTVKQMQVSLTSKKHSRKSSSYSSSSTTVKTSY
# PAR1 [2] = biological target: T2, PAR1 (Homo sapiens, UniProt P25116); experiment: Calcium flux in SW620 cells stably transfected with PAR1, TFLLRN stimulus; format: cell-based; conditions: 30 μM TFLLRN
# T2 sequence (P25116 22-425): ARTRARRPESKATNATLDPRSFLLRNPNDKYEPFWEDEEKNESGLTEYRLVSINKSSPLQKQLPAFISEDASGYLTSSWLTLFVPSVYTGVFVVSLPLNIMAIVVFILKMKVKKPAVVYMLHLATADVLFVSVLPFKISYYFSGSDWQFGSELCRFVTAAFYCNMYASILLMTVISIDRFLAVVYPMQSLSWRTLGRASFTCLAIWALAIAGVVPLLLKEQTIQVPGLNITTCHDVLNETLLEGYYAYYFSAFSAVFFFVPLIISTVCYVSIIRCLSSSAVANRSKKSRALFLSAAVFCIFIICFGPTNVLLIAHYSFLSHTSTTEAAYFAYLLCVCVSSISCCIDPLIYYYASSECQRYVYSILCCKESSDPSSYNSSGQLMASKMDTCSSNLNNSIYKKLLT
# Description: (§1) (A) PAR2 antagonist pepducins P2pal-18S and P2pal-14GQ inhibit calcium flux induced by PAR2 (SLIGRL) (SEQ ID NO:4) but not PAR1 (TFLLRN) (SEQ ID NO:2) agonists. SW620 cells were stably transfected with PAR1 and pretreated for 1 min with various concentrations of P2pal-18S or P2pal-14GQ and then stimulated with 30 μM PAR agonist. […] Cells were stimulated with 1 μM TFLLRN (SEQ ID NO:2), 1 μM SLIGRL (SEQ ID NO:4) or 100 μM AYPGKF (SEQ ID NO:5) and [^3H]-InsP formation measured over 30 min. (C) SW620 cells were treated with the indicated concentrations of P2pal-18S or P2pal-14GQ in the upper well of an 8-μm pore Boyden chamber and allowed to migrate for 18 h towards 10 μM of the PAR2 specific agonist SLIGRL in the lower chamber. The migration to RPMI/0.1% FBS represents random migration. (D) Migration of HEK cells transiently transfected with PAR2 (wild-type, WT), or PAR2-R36A/PAR2-RQ toward chemotactic gradients of 30 nM trypsin in the absence or presence of the indicated concentration of P2pal-18S for 18 h in a transwell apparatus ([…]). Data (n=2-4) are mean±SEM. *, P<0.05 and **, P<0.005.
# PAR2 [3] = biological target: T1, PAR2; experiment: SW620 cell migration toward SLIGRL (Boyden chamber, 18 h); format: cell-based; design: SW620 colon adenocarcinoma cells that endogenously express PAR2; endogenous in cells; host or cells: SW620 (in A7 the SW620 cells were additionally stably transfected with PAR1); conditions: 10 μM SLIGRL
# Description: as §1
# Target sequence in this assay (P55085 26-397): as the sequence (P55085 26-397 limits assumed) above
# PAR4 = biological target: T3, PAR4 (Homo sapiens, UniProt Q96RI0); experiment: [3H]-InsP formation in COS7 cells transfected with PAR4; format: cell-based; design: expressed in transfected cells; host or cells: COS7; conditions: 100 μM AYPGKF, 30 min
# T3 sequence (Q96RI0 18-385): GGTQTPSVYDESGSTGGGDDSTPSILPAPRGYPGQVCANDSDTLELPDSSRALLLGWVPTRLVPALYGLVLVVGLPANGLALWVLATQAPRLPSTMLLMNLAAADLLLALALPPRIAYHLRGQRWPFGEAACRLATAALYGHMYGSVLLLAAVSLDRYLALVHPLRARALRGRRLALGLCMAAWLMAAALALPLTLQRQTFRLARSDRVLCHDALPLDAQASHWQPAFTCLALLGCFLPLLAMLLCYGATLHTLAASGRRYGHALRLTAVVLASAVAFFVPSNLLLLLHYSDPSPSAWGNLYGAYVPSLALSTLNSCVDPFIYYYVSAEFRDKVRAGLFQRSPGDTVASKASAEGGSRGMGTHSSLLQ
# Description: as §1
# PAR1 [4] = biological target: T2, PAR1; experiment: [3H]-InsP formation in COS7 cells transfected with PAR1; format: cell-based; design: expressed in transfected cells; host or cells: COS7; conditions: 1 μM TFLLRN, 30 min
# Description: as §1
# PAR2 [5] = biological target: T1, PAR2; experiment: Calcium flux screen for PAR2 pepducin agonist and antagonist activity in SW620 cells; format: cell-based; design: SW620 colon adenocarcinoma cells that endogenously express PAR2; endogenous in cells; host or cells: SW620 (in A7 the SW620 cells were additionally stably transfected with PAR1)
# Target sequence in this assay (P55085 26-397): as the sequence (P55085 26-397 limits assumed) above
# Description: (§2) (A) Agonist and antagonist activity of third intracellular (i3) loop PAR2 pepducins (structure shown on top) using calcium flux assays with SW620 colon adenocarcinoma cells that endogenously express PAR2. Each column of three calcium flux traces corresponds to the i3 pepducin sequence shown above. The top row is the agonist activity of 3-4 μM pepducin and the middle row is the agonist activity of 14-15 μM pepducin. […] Final concentration of DMSO vehicle was 0.2%. […] (C) Agonist activity for each pepducin from (A) is reported as initial velocity of calcium flux at 4 μM pepducin (†), or at 14-15 μM pepducin (‡).
# PAR2 [6] = biological target: T1, PAR2; experiment: Agonist | (%)^†; design: SW620 colon adenocarcinoma cells that endogenously express PAR2; endogenous in cells; host or cells: SW620 (in A7 the SW620 cells were additionally stably transfected with PAR1); conditions: 4 µM
# Target sequence in this assay (P55085 26-397 limits assumed): as the sequence (P55085 26-397 limits assumed) above
# Description: as §2
# PAR1 [7] = biological target: T2, PAR1; experiment: Lung cancer cell line migration toward NIH-3T3 conditioned media (Boyden chamber); format: cell-based; design: endogenous in cells; host or cells: A549, HOP62, H1299, H522, H226, HOP92 lung carcinoma lines; conditions: A549, HOP62, H1299; pepducins in lower well
# Text: FIG. 11 illustrates PAR expression profile in lung cancer. Lung cancer cell lines (n=7) from the NCI-60 panel were characterized for surface expression of PAR1, PAR2, PAR3, and PAR4 (A) as previously described in Nguyen et al., 2006. (B): PAR mRNA expression profile in patient samples. Quantitative real-time PCR analysis of PAR1 to PAR4 (corrected for actin expression as internal control) and expressed as fold increase over nonmalignant lung tissue. Migration of lung carcinoma cell lines toward fibroblast conditioned media is expressed as cell number ±SD. (C): Silencing of PAR1 expression in A549 and HOP62 cells with shPAR1 or vector control. Surface expression of PAR1 was determined by flow cytometry using SFLLR-Ab. (D): Migration of A549 and HOP62 lung cancer cells toward NIH-3T3 conditioned media supplemented with RWJ-56110 (10 μmol/L) and SCH7979 (50 μmol/L) or vehicle (0.2% dimethyl sulfoxide). Migration of lung cancer cells treated with shPAR1 treatment or appropriate controls toward NIH-3T3 conditioned media. Basal migration toward conditioned media (vehicle treated or vector control) was normalized to 100%. *P<0.05, **P<0.01.
# FIG. 12 illustrates that PAR1 is a promigratory factor in lung cancer cells. […] (G): Cell from primary lung tumors or nonmalignant control were pretreated with PAR1 pepducins and migration was determined (*P<0.05, **P<0.01). […]
# mast cell tryptase [8] = biological target: T4, mast cell tryptase (Mus musculus, UniProt P21845); experiment: λ-carrageenan/kaolin-induced mouse paw edema (tryptase inhibitor); format: in vivo; conditions: C57BL/6 mice; 5 mg/kg s.c.
# T4 construct: from tissue; host or cells: C57BL/6 mouse, hind paw in vivo
# T4 sequence (P21845 32-276): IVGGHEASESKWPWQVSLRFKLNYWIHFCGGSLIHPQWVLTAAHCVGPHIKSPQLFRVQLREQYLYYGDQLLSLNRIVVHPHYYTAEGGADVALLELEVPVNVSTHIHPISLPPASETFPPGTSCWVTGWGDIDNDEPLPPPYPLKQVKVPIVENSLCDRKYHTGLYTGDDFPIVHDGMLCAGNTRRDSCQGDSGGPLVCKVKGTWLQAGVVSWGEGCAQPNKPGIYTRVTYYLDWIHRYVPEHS
# Description: (A) Mast cells were treated with 2 mg/mL of mast cell degranulating agent 48/80 or 2% 1-carrageenan/4% kaolin. […] (B) P2pal-18S inhibits human neutrophil chemotaxis (n=6) to mast cell media. Human neutrophils were incubated with […] P2pal-18S, or […] mast cell tryptase inhibitor APC-366 and allowed to migrate 30 min toward CM from mast cells. (C) C57BL/6 mice (n=5) were pretreated with the tryptase inhibitor APC-366 (5 mg/kg, s.c.) or vehicle (20% DMSO) and then challenged with intraplantar injection of 1-carrageenan/kaolin. (D) Mast cell conditioned media (30 μL of 1-carrageenan/kaolin stimulated media) was injected into the hindpaws of C57BL/6 mice treated with 10 mg/kg P2pal-18S or vehicle (n=5). Data represent mean±SEM. #, P=0.07, *, P<0.05 and **, P<0.005. (E) Mast cell-deficient mice have a significant reduction in 1-carrageenan/kaolin induced paw edema (8 h time point, n=4-6) as compared to littermate controls. Mast-cell deficient mice or littermate controls with intact mast cells were treated with P2pal-18S (10 mg/kg, s.c.) or vehicle and hind paws challenged with 1-carrageenan/kaolin irritant. Error bars represent mean±SEM.
# To examine whether mast cells and mast cell tryptase were activating PAR2 in the paw edema model in vivo, mice were depleted of mast cells through pretreatment with compound 48/80 (Carvalho M et al. Eur J Pharmacol (2005), 525: 161-169). […]
# mast cell tryptase [9] = experiment: Human neutrophil chemotaxis toward mast cell conditioned media (tryptase inhibitor); format: cell-based; conditions: 10 mM APC-366; 30 min
# Description: (A) Mast cells were treated with 2 mg/mL of mast cell degranulating agent 48/80 or 2% 1-carrageenan/4% kaolin. […] (B) P2pal-18S inhibits human neutrophil chemotaxis (n=6) to mast cell media. Human neutrophils were incubated with […] P2pal-18S, or […] mast cell tryptase inhibitor APC-366 and allowed to migrate 30 min toward CM from mast cells. (C) C57BL/6 mice (n=5) were pretreated with the tryptase inhibitor APC-366 (5 mg/kg, s.c.) or vehicle (20% DMSO) and then challenged with intraplantar injection of 1-carrageenan/kaolin. (D) Mast cell conditioned media (30 μL of 1-carrageenan/kaolin stimulated media) was injected into the hindpaws of C57BL/6 mice treated with 10 mg/kg P2pal-18S or vehicle (n=5). Data represent mean±SEM. #, P=0.07, *, P<0.05 and **, P<0.005. (E) Mast cell-deficient mice have a significant reduction in 1-carrageenan/kaolin induced paw edema (8 h time point, n=4-6) as compared to littermate controls. Mast-cell deficient mice or littermate controls with intact mast cells were treated with P2pal-18S (10 mg/kg, s.c.) or vehicle and hind paws challenged with 1-carrageenan/kaolin irritant. Error bars represent mean±SEM. […]
compound,measurement,setting,value
CCCCCCCCCCCCCCCC(=O)NCC(=O)N[C@@H](CC(=O)O)C(=O)N[C@@H](CCC(=O)O)C(=O)N[C@@H](CC(N)=O)C(=O)N[C@@H](CO)C(=O)N[C@@H](CCC(=O)O)C(=O)N[C@@H](CCCCN)C(=O)N[C@@H](CCCCN)C(=O)N[C@@H](CCCNC(=N)N)C(=O)N[C@@H](CCCCN)C(=O)N[C@@H](CCC(N)=O)C(=O)N[C@@H](C)C(=O)N[C@H](C(=O)N[C@@H](CCCCN)C(N)=O)[C@@H](C)CC [P2pal-14GQ] (Palmitoyl-GDENSEKKRKQAIK-NH2),Agonist | (%)^‡,PAR2 [1],2%
same,Inhibition of PAR1 calcium flux,PAR1 [2],selective for PAR2 and not PAR1
same,Suppression of SW620 migration to SLIGRL,PAR2 [3],not as efficacious in suppressing migration of SW620 cells to SLIGRL as compared to P2pal-18S
same,Inhibition of InsP signaling from PAR4,PAR4,do not inhibit
same,Inhibition of InsP signaling from PAR1,PAR1 [4],do not inhibit
same,"Antagonist activity (inhibition of SLIGRL calcium flux, area under the curve)","PAR2 [5]; 6 μM pepducin, 1 min pretreatment, against 100 μM SLIGRL",53%
same,Agonist activity (calcium flux),PAR2 [5]; 3-4 μM and 14-15 μM pepducin,agonist activity remained insignificant or insubstantial
same,Agonist | (%)^†,PAR2 [6],3%
"P1pal-19EE: negative control PAR1 i3 pepducin, 19 residues, S309 to E and A311 to E; SEQ ID NO:27 (Palmitoyl-ECESSSAEANRSKKERELF-NH2)",Suppression of migration of PAR1-expressing adenocarcinomas,PAR1 [7],no effect on migration
NC(=O)[C@@H]1CCCN1C(=O)[C@H](CCCN=C(N)N)NC(=O)c1ccc2ccccc2c1O [APC-366],Protection in λ-carrageenan/kaolin-induced paw edema,mast cell tryptase [8],40%
same,Inhibition of chemotactic migration toward tryptase-containing mast cell media,mast cell tryptase [9],completely inhibited
